# Key:
# Type in all cases: cell-based, human
# [1] = test system: megakaryocytes before polyploidization derived from ES cells; test: Ploidy assay: FACS after Hoechst and anti-CD41a staining; settings: for number of cells with 8N or greater: 10 μg/ml
# Procedure: After introduction of MYC and MBI1 genes, the resulting megakaryocytes (about 10^5) were cultured for about 30 days in the absence of doxycycline and presence of estradiol under the culturing conditions of 37° C. and presence of 5% CO2 to proliferate them to about 10^11. Culturing was continued further while changing the condition to the presence of doxycycline and absence of estradiol in order to suppress the expression of the MYC gene and the BMI1 gene in the thus proliferated megakaryocytic cell line and adding an ROCK inhibitor (Y27632; product of Wako Pure Chemicals) to the culture medium to give a concentration of 10 μM in order to determine the influence of Y27632 on polyploidization. On Day 7 after culturing was started while adding Y27632 to the culture medium, the degree of polyploidization was studied using FACS (FIG. 5).
# The degree of polyploidization was studied (ploidy assay) by suppressing expression of MYC/BMI1 in the presence of 10 μM of Y27632 while inducing […] of BCL-XL, and culturing the resulting cells for 7 days.
# Influence on polyploidization was studied by further treating the cells, which was subjected to the treatment of 2-7-4, with valproic acid. After suppression of expression of MYC/BMI1, forced expression of BCL-XL, treatment with the ROCK inhibitor (10 μM), and suppression of expression of p53, valproic acid (final concentration: 0.5 mM) was added to the medium and culturing was conducted at 39° C. for 7 days.
# After suppression of expression of MYC/BMI1, forced expression of BCL-XL, and treatment with blebbistatin (10 μg/ml), the resulting cells were cultured at 39° C. for 7 days.
# (§1) Next, the degree of polyploidization when the blebbistatin treatment was used in combination with the other treatments was studied. The cells were subjected to blebbistatin treatment in addition to the above-mentioned treatments in Section 2-7-5 and influence of them on polyploidization was studied. After suppression of expression of MYC/BMI1, forced expression of BCL-XL, treatment with a ROCK inhibitor (10 μM), suppression of expression of p53, and treatment with valproic acid (0.5 mM), treatment with blebbistatin (10 μg/ml) was conducted and then, the resulting cells were cultured at 39° C. for 7 days. […] Induction to mature megakaryocytes was therefore confirmed (lower graph in FIG. 13).
# iMKPC-type II cells [2] = test: Platelet production from iMKPC-type II cells: flow cytometry for CD41/CD42b; settings: 5 μM, 37° C., 3 days, with/without feeder cells and serum
# Procedure: A platelet production efficiency was measured by using the following conditions in combination as shown in FIG. 17: use/non-use of feeder cells, use/non-use of Conditioned Medium, use of serum medium/use of serum-free medium, and administration/non-administration of blebbistatin.
# Conditioned Medium was prepared by seeding 8×10^5 MMC-treated 10T1/2 cells on a 10-cm dish subjected to gelatin coating, changing the medium with 10 ml of a differentiation medium (EBM) containing SCF (50 ng/ml) and TPO (50 ng/ml) and further containing 15% serum or not containing a serum on the next day (after adhesion of cells), recovering the medium and adding 10 ml of a new medium (containing SCF and TPO) 24 hours later, pooling three-day's Conditioned Medium, and filtering the medium through a 0.22-μm filter to remove the 10T1/2 cells. When the resulting medium was used for tests, SCF and TPO were added newly. […]
# The platelets contained in the supernatant of the medium were analyzed with a flow cytometer after staining with an antibody CD41 and an antibody CD42b. […]
# Comparison in the expression level of CD42b in CD41-positive platelets in each population (a ratio of average fluorescence intensity of each population to average fluorescence intensity of normal condition) is shown in FIG. 18. […]
# megakaryocytes (CD41a+) = test: Growth curve and micrographs of cells treated with blebbistatin plus the other treatments; settings: 10 μg/ml with the other treatments, after culturing for 7 days
# Procedure: as §1
# iMKPC-type II cells [3] = test: Microscopic observation of polyploidization of iMKPC-type II; settings: 5 μg/ml; c-MYC and BMI1 off, BCL-XL forced, p53 knocked down
# Excerpt: It was observed that by turning off the expression of c-MYC and BMI1, forcing expression of BCL-XL, and knocking down the p53 gene, the cells become increasingly polyploidized.
# iMKPC-type II cells [4] = test: Cytokine dependence and surface markers of iMKPC-type II; settings: for proliferation of iMKPC-type II cells: SCF 50 ng/ml, TPO 50 ng/ml, 39° C., 21 days, Dox 0.5 μg/ml
# Procedure: On 10T1/2 feeder cells, 2×10^5 iMKPC-type II cells were seeded, followed by culturing in the presence of 0.5 μg/ml of Dox at 39° C. for 21 days under the conditions of cytokines, that is, SCF (50 ng/ml), TPO (50 ng/ml), and EPO (6 U/ml).
# On Day 21 after addition of cytokine, the cells were analyzed with a flow cytometer after staining with a CD41 antibody, a CD42b body, and a GPA antibody.
# iMKPC-type I cells = test: Cytokine dependence of iMKPC-type I proliferation; settings: SCF 50 ng/ml, TPO 50 ng/ml, 37° C., 14 days, 10T1/2 feeder cells
# Procedure: The cytokine dependence of iMKPC-type I was studied by seeding 2×10^5 iMKPC-type I cells on 10T1/2 feeder cells and culturing them for 14 days at 37° C. under the conditions shown in FIG. 1A in the presence of 2 uM of β-estradiol while using the following cytokines: SCF (50 ng/ml), TPO (50 ng/ml), and EPO (6 U/ml). A population in which proliferation was confirmed on Day 4 and Day 11 was counted for cell number, and 2×10^5 cells were replated, while the medium of the other populations was changed. The number of cells was counted on Day 8 and Day 14 and 2×10^5 cells were replated. At the same time, on Day 8, some of the cells were analyzed with a flow cytometer after staining with a CD41 antibody, a CD42b antibody, and a GPA antibody.
compound,measurement,setting,value
"C[C@@H](N)[C@H]1CC[C@H](C(=O)Nc2ccncc2)CC1.Cl.Cl.O (relative stereo) [Y27632, (R)-(+)-trans-N-(4-pyridyl)-4-(1-aminoethyl)-cyclohexane carboxamide.2HCl.H2O]",number of cells with 4N (degree of polyploidization),"[1]; 10 μM, Day 7, MYC/BMI1 expression suppressed, compared with cells without inhibitor (vehicle)",increase in the number of cells with 4N
Cc1ccc2c(c1)C(=O)C1(O)CCN(c3ccccc3)C1=N2 (centres unmarked) [blebbistatin],expression level of CD42b in CD41-positive platelets (ratio of average fluorescence intensity to normal condition),iMKPC-type II cells [2],Influence of blebbistatin was not found
same,platelet production amount (ratio of number of CD41+ CD42b+ platelets to normal condition),iMKPC-type II cells [2],No significant difference
same,cell morphology (cytoplasm),megakaryocytes (CD41a+),hypertrophy of cytoplasm was observed
same,proliferation capacity,megakaryocytes (CD41a+),slight deterioration in proliferation capacity
same,polyploidization by microscopic observation,iMKPC-type II cells [3],polyploidized further
same,number of cells with 8N or greater,"[1]; 39° C., 7 days, MYC/BMI1 suppressed, BCL-XL forced, ROCK inhibitor 10 μM, p53 suppressed, valproic acid 0.5 mM, vs control cells",greater
same,number of cells with 8N or greater,"[1]; 39° C., 7 days, MYC/BMI1 suppressed, BCL-XL forced, vs cells without blebbistatin",greater
CCCC(CCC)C(=O)O [valproic acid],degree of polyploidization,"[1]; 0.5 mM, 39° C., 7 days, MYC/BMI1 suppressed, BCL-XL forced, ROCK inhibitor 10 μM, p53 suppressed, vs untreated control cells",promoted polyploidization
SCF: cytokine added to the culture medium (50 ng/ml),proliferation of iMKPC-type II cells,iMKPC-type II cells [4],SCF had no influence on proliferation
same,proliferation of iMKPC-type I cells,iMKPC-type I cells,strongly depended on SCF
TPO: cytokine added to the culture medium (50 ng/ml),expression of CD41a and CD42b,"iMKPC-type II cells [4]; Day 21 after addition of cytokine, compared with the other populations",higher expression in CD41a and CD42b
same,proliferation of iMKPC-type II cells,iMKPC-type II cells [4],proliferation is promoted further
same,proliferation of iMKPC-type I cells,iMKPC-type I cells,TPO had no influence on their proliferation
